Laboratory results taken from patent publication US7863478B2, “UV filters” (Merck Patent GmbH, priority 2004, dated 2011).

Assays:
[1] = UV absorption (UV-VIS spectra in 2-propanol, 1 mg/100 ml); type: physicochemical; parameters: UV absorbance at λmax (1 mg/100 ml): unit not given here; conditions: 1 mg/100 ml; for UV absorbance at λmax (1 mg/100 ml): value in brackets after λmax in the synthesis example
Protocol: FIG. 1: UV absorption spectra of 1-hydroxy-3-[(E)-3-(4-methoxyphenyl)-2-propenoyloxy]-2-oxopropane (Example 1a) and 1-hydroxy-3-(2-cyano-3,3-diphenylacryloyloxy)-2-oxopropane (Example 1b) (in each case measured in 2-propanol at a concentration of 1 mg/100 ml)
FIG. 2: UV absorption spectra of 3-[4-(3-hydroxy-2-oxopropoxymethyl)benzylidene]-4,7,7-trimethylbicyclo[2.2.1]heptan-2-one (Example 9), N-(2,3-dihydroxypropyl)-(E)-3-(4-methoxyphenyl)acrylamide (Example 10a) and N-(2,3-dihydroxypropyl)-N-methyl-(E)-3-(4-methoxyphenyl)acrylamide (Example 10b) (in each case measured in 2-propanol at a concentration of 1 mg/100 ml).

UV-VIS λmax [1] [nm] | UV absorbance at λmax (1 mg/100 ml) [1] | melting point [°C] | SMILES
311.0 | 1.213 | 129 to 131 | CN(C)c1ccc(C(=O)OCC(=O)CO)cc1 [Example 3, 3-Hydroxy-2-oxopropyl 4-dimethylaminobenzoate]
298.0 | 0.940 | 104 to 106 | COc1ccc(/C=C/C(=O)NCC(O)CO)cc1 (stereo not drawn) [Example 10a, N-(2,3-dihydroxypropyl)-(E)-3-(4-methoxyphenyl)acrylamide]
301.0 | 0.934 | 81 to 83 | COc1ccc(/C=C/C(=O)N(C)CC(O)CO)cc1 (stereo not drawn) [Example 10b, N-(2,3-dihydroxypropyl)-N-methyl-(E)-3-(4-methoxyphenyl)acrylamide]
301.0 | 0.947 | 152 to 153 | CN(C)c1ccc(C(=O)NCC(O)CO)cc1 (stereo not drawn) [Example 10d, N-(2,3-dihydroxypropyl)-4-dimethylaminobenzamide]
294.0 | 0.941 | 160 to 162 | COc1ccc(/C=C/C(=O)NCC(=O)CO)cc1 [Example 20, N-(3-hydroxy-2-oxopropyl)-(E)-3-(4-methoxyphenyl)acrylamide]
307.5 | 0.706 | 155 to 157 | CCCCC(CC)COc1ccc(/C=C/C(=O)NCC(=O)CO)cc1 (stereo not drawn) [Example 21, N-(3-hydroxy-2-oxopropyl)-(E)-3-[4-(2-ethylhexyloxyphenyl)]acrylamide]
307.0 | 1.140 | 146 to 148 | COc1ccc(/C=C/C(=O)OCC(=O)COC(=O)/C=C/c2ccc(OC)cc2)cc1 [Example 23, 1,3-Bis-[(E)-3-(4-methoxyphenyl)-2-propenoyloxy]-2-oxopropane]
301.0 | 0.947 | 77 to 79 | CCCCC(CC)COc1ccc(/C=C/C(=O)OCC(=O)COC(=O)/C=C/c2ccc(OCC(CC)CCCC)cc2)cc1 (stereo not drawn) [Example 23a]
304.0 | 0.031 | 209 | N#CC(C(=O)OCC(=O)COC(=O)C(C#N)=C(c1ccccc1)c1ccccc1)=C(c1ccccc1)c1ccccc1 [Example 23b, 1,3-Bis-(2-cyano-3,3-diphenylacryloyloxy)-2-oxopropane]

SMILES | UV-VIS λmax [1] [nm] | UV absorbance at λmax (1 mg/100 ml) [1] | melting point [°C]
CN(C)c1ccc(C(=O)OCC(=O)CO[Si](C)(C)C(C)(C)C)cc1 [Example 2] | 299.0 | 0.67 | 91 to 92
COc1ccc(/C=C/C(=O)NCC(O)CO[Si](C)(C)C(C)(C)C)cc1 (stereo not drawn) [Example 12, N-[3-(tert-butyldimethylsilyloxy)-2-hydroxypropyl]-(E)-3-(4-methoxyphenyl)acrylamide] | 291.0 | 0.481 | 107 to 109
CN(C)c1ccc(C(=O)NCC(O)CO[Si](C)(C)C(C)(C)C)cc1 (stereo not drawn) [Example 15, N-[3-(tert-butyldimethylsilyloxy)-2-hydroxypropyl]-4-dimethylaminobenzamide] | 301.0 | 0.64 | 127 to 128
COc1ccc(/C=C/C(=O)NCC(=O)CO[Si](C)(C)C(C)(C)C)cc1 [Example 17, N-[3-(tert-butyldimethylsilyloxy)-2-oxopropyl]-(E)-3-(4-methoxyphenyl)acrylamide] | 300.0 | 0.843 | 151 to 152
